Data reported in the supplement of paper PMC10307832.

Tests used:
Test in all cases: relative viability (nuclei count vs DMSO), 5 days (fraction); higher = more cells survive
Kobe2602 + Olaparib = compound: C1=CC(=CC=C1NC(=S)NNC2=C(C=C(C=C2[N+](=O)[O-])C(F)(F)F)[N+](=O)[O-])F [Kobe2602] + O=C(c1cc(Cc2n[nH]c(=O)c3ccccc23)ccc1F)N1CCN(C(=O)C2CC2)CC1 [Olaparib] (partner 8 µM)
How it was run: (§1)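 Relative viability equals treated-well nuclei counts divided by vehicle-well nuclei counts. Counts came from 4× images of lung cancer cell lines grown in 1536-well plates for 5 days after pin-tool dosing on the day after seeding. Dosing used one drug alone or a fixed anchor-drug dose plus five library-drug doses (not always all listed) in √10 steps, and values are medians of duplicate plates.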

Cabozantinib + Alpelisib = compound: COc1cc2nccc(Oc3ccc(NC(=O)C4(C(=O)Nc5ccc(F)cc5)CC4)cc3)c2cc1OC [Cabozantinib] + Cc1nc(NC(=O)N2CCC[C@H]2C(N)=O)sc1-c1ccnc(C(C)(C)C(F)(F)F)c1 [Alpelisib] (partner 2 µM)
How it was run: as §1

Cabozantinib + Dasatinib = compound: COc1cc2nccc(Oc3ccc(NC(=O)C4(C(=O)Nc5ccc(F)cc5)CC4)cc3)c2cc1OC [Cabozantinib] + Cc1nc(Nc2ncc(C(=O)Nc3c(C)cccc3Cl)s2)cc(N2CCN(CCO)CC2)n1 [Dasatinib] (partner 0.075 µM)
How it was run: as §1

Kobe2602 + Linsitinib = compound: C1=CC(=CC=C1NC(=S)NNC2=C(C=C(C=C2[N+](=O)[O-])C(F)(F)F)[N+](=O)[O-])F [Kobe2602] + C[C@]1(O)C[C@@H](c2nc(-c3ccc4ccc(-c5ccccc5)nc4c3)c3c(N)nccn32)C1 [Linsitinib] (partner 1 µM)
How it was run: as §1

Row | Cell Line | relative viability (Kobe2602 + Olaparib; first compound 0.2 µM) | relative viability (Kobe2602 + Olaparib; first compound 0.6325 µM) | relative viability (Kobe2602 + Olaparib; first compound 2 µM) | relative viability (Kobe2602 + Olaparib; first compound 6.325 µM) | relative viability (Kobe2602 + Olaparib; first compound 20 µM) | relative viability (Cabozantinib + Alpelisib; first compound 0.02 µM) | relative viability (Cabozantinib + Alpelisib; first compound 0.06325 µM) | relative viability (Cabozantinib + Alpelisib; first compound 0.2 µM) | relative viability (Cabozantinib + Alpelisib; first compound 0.6325 µM) | relative viability (Cabozantinib + Alpelisib; first compound 2 µM) | relative viability (Cabozantinib + Dasatinib; first compound 0.02 µM) | relative viability (Cabozantinib + Dasatinib; first compound 0.06325 µM) | relative viability (Cabozantinib + Dasatinib; first compound 0.2 µM) | relative viability (Cabozantinib + Dasatinib; first compound 0.6325 µM) | relative viability (Cabozantinib + Dasatinib; first compound 2 µM) | relative viability (Kobe2602 + Linsitinib; first compound 0.2 µM) | relative viability (Kobe2602 + Linsitinib; first compound 0.6325 µM) | relative viability (Kobe2602 + Linsitinib; first compound 2 µM) | relative viability (Kobe2602 + Linsitinib; first compound 6.325 µM) | relative viability (Kobe2602 + Linsitinib; first compound 20 µM)
1 | NCI-H2170 | 0.561 | 0.574 | 0.53 | 0.597 | 0.625 | 0.842 | 0.958 | 0.723 | 0.854 | 0.781 | 0.622 | 0.57 | 0.373 | 0.542 | 0.591 |  |  |  |  | 
2 | NCI-H1623 |  |  |  |  |  |  |  |  |  |  | 0.483 | 0.606 | 0.486 | 0.486 | 0.568 |  |  |  |  | 
3 | NCI-H2023 | 0.496 | 0.566 | 0.511 | 0.446 | 0.166 | 0.613 | 0.591 | 0.559 | 0.514 | 0.335 | 0.45 | 0.531 | 0.369 | 0.311 | 0.248 | 0.575 | 0.728 | 0.528 | 0.586 | 0.682
4 | ABC-1 | 0.639 | 0.623 | 0.747 | 0.773 | 0.775 | 0.865 | 1.16 | 1.01 | 1.01 | 0.995 | 0.515 | 0.567 | 0.596 | 0.55 | 0.525 | 0.609 | 0.984 | 0.722 | 0.876 | 0.735
5 | IA-LM | 0.851 | 0.718 | 0.773 | 0.894 | 0.862 | 0.874 | 0.876 | 0.928 | 0.941 | 0.952 |  |  |  |  |  | 0.506 | 0.462 | 0.632 | 0.476 | 0.573
6 | NCI-H520 | 0.333 | 0.38 | 0.381 | 0.353 | 0.333 | 0.92 | 0.928 | 0.958 | 0.713 | 0.833 | 0.18 | 0.204 | 0.215 | 0.201 | 0.199 | 0.997 | 1.04 | 1.02 | 0.984 | 0.968
7 | NCI-H1299 | 0.996 | 1.02 | 0.949 | 1.02 | 0.985 | 1.06 | 1.06 | 1.12 | 1 | 1.12 |  |  |  |  |  | 0.887 | 0.979 | 0.961 | 1.03 | 0.945
8 | SW 900 | 0.914 | 0.981 | 0.679 | 0.969 | 0.976 |  |  |  |  |  | 0.541 | 0.373 | 0.541 | 0.404 | 0.23 |  |  |  |  | 
9 | NCI-H1563 |  |  |  |  |  | 0.931 | 0.916 | 0.912 | 0.864 | 0.806 | 0.386 | 0.424 | 0.43 | 0.498 | 0.452 | 1.1 | 1.39 | 1.08 | 1.14 | 1.34
10 | NCI-H1650 | 0.844 | 0.891 | 0.819 | 0.868 | 0.8 |  |  |  |  |  | 0.261 | 0.292 | 0.294 | 0.303 | 0.225 |  |  |  |  | 
11 | Calu-6 | 0.581 | 0.589 | 0.606 | 0.631 | 0.514 | 1.02 | 1.09 | 1.05 | 1.04 | 0.906 |  |  |  |  |  | 0.911 | 0.975 | 0.897 | 0.954 | 0.895
12 | EBC-1 | 0.687 | 0.684 | 0.69 | 0.647 | 0.759 | 0.718 | 0.931 | 0.208 | 0.185 | 0.22 |  |  |  |  |  | 0.796 | 0.975 | 0.893 | 0.938 | 0.871
13 | NCI-H2342 | 0.415 | 0.406 | 0.435 | 0.493 | 0.434 |  |  |  |  |  | 0.291 | 0.386 | 0.308 | 0.316 | 0.311 |  |  |  |  | 
14 | NCI-H1703 | 0.454 | 0.364 | 0.4 | 0.483 | 0.431 | 0.265 | 0.182 | 0.223 | 0.23 | 0.151 |  |  |  |  |  | 0.609 | 0.99 | 0.499 | 0.749 | 0.377
15 | ChaGo-K-1 | 0.362 | 0.406 | 0.4 | 0.355 | 0.332 |  |  |  |  |  | 0.552 | 0.652 | 0.519 | 0.634 | 0.542 |  |  |  |  | 
16 | HCC-44 | 0.965 | 0.983 | 0.955 | 0.951 | 0.898 | 0.864 | 0.784 | 0.808 | 0.757 | 0.855 |  |  |  |  |  | 0.739 | 0.668 | 0.632 | 0.624 | 0.766
17 | NCI-H1648 | 0.62 | 0.929 | 0.493 | 0.772 | 0.872 |  |  |  |  |  |  |  |  |  |  |  |  |  |  | 
18 | NCI-H522 | 0.66 | 0.662 | 0.646 | 0.641 | 0.598 |  |  |  |  |  | 0.726 | 0.898 | 0.93 | 0.846 | 1.04 |  |  |  |  | 
19 | A549 | 0.45 | 0.484 | 0.281 | 0.315 | 0.513 | 0.877 | 0.884 | 0.833 | 0.809 | 0.794 |  |  |  |  |  | 0.562 | 0.687 | 0.583 | 0.524 | 0.578
